Source: publication PMC10178127, “Immunomodulatory Effects of the Pea Defensin Psd1 in the Caco-2/Immune Cells Co-Culture upon Candida albicans Infection” (International Journal of Molecular Sciences, 2023)
Converted amounts (≈) assume the structure as drawn. Read-outs that look alike come from different tables or passages of the source. Each block holds one molecule with its values, some of them ahead of it. *1 amine or outer side, *2 acyl side, *3 side chain or, on linkers, in order; H or OH if unused. Where a SMILES comes first, the peptide text is derived from it. Bridges are numbered along the chain shown (N, C = ends). [ ]: non-standard residue; d: D form. The star is where a group is joined. hTyr(3S-OH,4S-OH,3'-OSO3H) = N[C@H](C(=O)O)[C@H](O)[C@@H](O)c1ccc(O)c(OS(=O)(=O)O)c1; pTerphenylCO(4''-OnC5H11) = CCCCCOc1ccc(-c2ccc(-c3ccc(C(=O)*)cc3)cc2)cc1; Orn(4R-OH,5R-OH) = O=C([C@H](C[C@@H](O)[C@@H](O)N[*:3])N[*:1])[*:2]; hTyr(3S-OH,4S-OH) = N[C@H](C(=O)O)[C@H](O)[C@@H](O)c1ccc(O)cc1; Pro(3S-OH,4S-Me) = C[C@H]1CN[C@H](C(=O)O)[C@H]1O; X1 = CCCCCOc1ccc(-c2cc(-c3ccc(C(=O)*)cc3)no2)cc1; Gln(3R-OH) = NC(=O)C[C@@H](O)[C@H](N)C(=O)O; Hyp = O=C(O)[C@@H]1C[C@@H](O)CN1

What was measured:
[1] = system: Candida albicans v47a3; assay: Sensitivity to conventional antimycotics, broth dilution method; assay type: cell-based
Description: The clinical isolate of Candida albicans (v47a3) was collected from the patient with human immunodeficiency virus (HIV) infection and mucosal candidiasis and provided by G.N. Gabrichevsky Research Institute for Epidemiology and Microbiology (Moscow, Russia). This strain was susceptible to conventional antifungal agents except for a slight increase in the minimal inhibitory concentrations for triazole derivatives as was shown using the broth dilution method according to [31] (Supporting Materials, Tables S2 and S3). Strain stock was kept at −70 °C in 10% non-fat milk with 10% glycerol. Melittin (>98% pure) synthesized using a standard solid-phase method was provided by Dr. Sergey V. Sychev in M.M. Shemyakin and Yu.A. Ovchinnikov Institute of Bioorganic Chemistry of the Russian Academy of Sciences (Moscow, Russia).

[2] = system: Caco-2 cells; conditions: known model substrates of efflux pumps; no reference given; cited from earlier work
[3] = system: human peripheral blood mononuclear cells (PBMCs); assay: Resazurin-based cell cytotoxicity assay; conditions: PBMCs, 24 h, read-out: concentration inducing 50% cell death
Description: The cytotoxic properties of the pea defensin Psd1 were investigated by resazurin-based cell cytotoxicity assay as previously described. In brief, PBMCs were seeded in 96-well plates at 2 × 10^6 cells per well in RPMI-1640 supplemented with 10% FBS and kept in a CO2 incubator for 24 h. After this, serial two-fold dilutions of defensin in a complete culture medium were added to the wells at final concentrations from 0.2 to 50 μM and the plates were incubated for 24 h. Resazurin (Sigma) was added at a final concentration of 70 µM, and the plates were incubated overnight (16–18 h). Fluorescent resorufin was registered using a 535/595 filter at PlateReader AF2200 (Eppendorf). Untreated cells were used as negative controls. Non-ionogenic detergent Triton X-100 and membrane-active peptide melittin from honeybee venom were used as positive controls. The cell viability was calculated according to the following equation: cell viability (%) = (Fsample/Fcontrol) × 100%. Cell lysis was monitored with an Olympus CKX41 microscope.

[4] = V47A3, MIC = 50% growth inhibition, broth dilution according to EUCAST E.DEF 7.3.2, read-out: MICs

Molecule: CCCCCOc1ccc(-c2ccc(-c3ccc(C(=O)N[C@H]4C[C@@H](O)[C@@H](O)NC(=O)[C@@H]5[C@@H](O)[C@@H](C)CN5C(=O)[C@H]([C@@H](C)O)NC(=O)[C@H]([C@H](O)[C@@H](O)c5ccc(O)cc5)NC(=O)[C@@H]5C[C@@H](O)CN5C(=O)[C@H]([C@@H](C)O)NC4=O)cc3)cc2)cc1 [Anidulafungin] ({pTerphenylCO(4''-OnC5H11)}-[Orn(4R-OH,5R-OH)]T[Hyp][hTyr(3S-OH,4S-OH)]T[Pro(3S-OH,4S-Me)]; lactam 1-C)
MIC ([1]; V47A3, read-out: MICs): 0.03 µg/mL (≈ 0.0263 µM)

Molecule: CC[C@]1(O)C[C@@H]2CN(CCc3c([nH]c4ccccc34)[C@@](C(=O)OC)(c3cc4c(cc3OC)N(C)[C@H]3[C@@](O)(C(=O)OC)[C@H](OC(C)=O)[C@]5(CC)C=CCN6CC[C@]43[C@@H]65)C2)C1 [vinblastine]
efflux ratio (ER) [2]: > 10

Molecule: CCC(C)n1ncn(-c2ccc(N3CCN(c4ccc(OCC5COC(Cn6cncn6)(c6ccc(Cl)cc6Cl)O5)cc4)CC3)cc2)c1=O (stereo not shown) [Itraconazole]
MIC [1, 4]: 0.12 µg/mL (≈ 0.17 µM)

Molecule: OC(Cn1cncn1)(Cn1cncn1)c1ccc(F)cc1F [Fluconazole]
MIC [1, 4]: 8 µg/mL (≈ 26.1 µM)

MIC ([1]; V47A3, MIC = >90% inhibition of fungal growth, broth dilution according to EUCAST E.DEF 7.3.2, read-out: MICs): 0.5 µg/mL (≈ 0.541 µM)
Molecule: C[C@@H]1[C@H](O)[C@@H](C)/C=C/C=C/C=C/C=C/C=C/C=C/C=C/[C@H](O[C@@H]2O[C@H](C)[C@@H](O)[C@H](N)[C@@H]2O)C[C@@H]2O[C@](O)(C[C@@H](O)C[C@@H](O)[C@H](O)CC[C@@H](O)C[C@@H](O)CC(=O)O[C@H]1C)C[C@H](O)[C@H]2C(=O)O [Amphotericin B]

Molecule: O=C1c2c(O)ccc(O)c2C(=O)c2c(NCCNCCO)ccc(NCCNCCO)c21 [mitoxantrone]
efflux ratio (ER) [2]: > 10

Molecule: CCCCCOc1ccc(-c2cc(-c3ccc(C(=O)N[C@H]4C[C@@H](O)[C@@H](O)NC(=O)[C@@H]5[C@@H](O)[C@@H](C)CN5C(=O)[C@H]([C@H](O)CC(N)=O)NC(=O)[C@H]([C@H](O)[C@@H](O)c5ccc(O)c(OS(=O)(=O)O)c5)NC(=O)[C@@H]5C[C@@H](O)CN5C(=O)[C@H]([C@@H](C)O)NC4=O)cc3)no2)cc1 [Micafungin] (X1-[Orn(4R-OH,5R-OH)]T[Hyp][hTyr(3S-OH,4S-OH,3'-OSO3H)][Gln(3R-OH)][Pro(3S-OH,4S-Me)]; lactam 1-C)
MIC ([1]; V47A3, read-out: MICs): 0.008 µg/mL (≈ 0.0063 µM)

Molecule: CC[C@@H]([C@H](C)O)n1ncn(-c2ccc(N3CCN(c4ccc(OC[C@@H]5CO[C@@](Cn6cncn6)(c6ccc(F)cc6F)C5)cc4)CC3)cc2)c1=O [Posaconazole]
MIC [1, 4]: 0.12 µg/mL (≈ 0.171 µM)

MIC [1, 4]: ≤ 0.06 µg/mL
Molecule: Nc1[nH]c(=O)ncc1F [Flucytosine]

Molecule: C[C@@H](c1ncncc1F)[C@](O)(Cn1cncn1)c1ccc(F)cc1F [Voriconazole]
MIC [1, 4]: 0.5 µg/mL (≈ 1.43 µM)

Molecule: melittin [reference compound]
IC50 [3]: 6.25 µM

Molecule: CC[C@H](C)C[C@H](C)CCCCCCCCC(=O)N[C@H]1C[C@@H](O)[C@@H](NCCN)NC(=O)[C@@H]2[C@@H](O)CCN2C(=O)[C@H]([C@H](O)CCN)NC(=O)[C@H]([C@H](O)[C@@H](O)c2ccc(O)cc2)NC(=O)[C@@H]2C[C@@H](O)CN2C(=O)[C@H]([C@@H](C)O)NC1=O [Caspofungin]
MIC ([1]; V47A3, read-out: MICs): 0.06 µg/mL (≈ 0.0549 µM)

Molecule: C[C@H]1O[C@@H](O[C@H]2[C@@H](O)C[C@H](O[C@H]3[C@@H](O)C[C@H](O[C@H]4CC[C@@]5(C)[C@H](CC[C@@H]6[C@@H]5C[C@@H](O)[C@]5(C)[C@@H](C7=CC(=O)OC7)CC[C@]65O)C4)O[C@@H]3C)O[C@@H]2C)C[C@H](O)[C@@H]1O [digoxin]
efflux ratio (ER) [2]: > 10
